Reference: patent US20260123631A1, “NATURAL PORPHIN SALT AND USE THEREOF AS PLANT GROWTH REGULATOR AND PLANT IMMUNITY INDUCER” (NANJING BOSTEC BIOLOGICAL ENGINEERING CO., LTD, priority 2022, published 2026)

How the values were obtained:
[1] = Stability of sample solutions in the dark/under light; assay type: physicochemical; details: under light 30,000 lux, salts in water, acidic reference in 30% to 50% ethanol
Procedure: Determination: An appropriate amount of a salt sample was taken, dissolved with water, and diluted to prepare a test solution with a concentration of about 10 ppm. An acidic reference substance (extremely-insoluble in water) was prepared with a 30% to 50% ethanol aqueous solution into a test solution with a concentration of about 10 ppm.
Each test solution was scanned by an ultraviolet spectrophotometer (at 0 h) for absorbance in a range of 200 nm to 800 nm immediately after being prepared. Then a test solution of each sample was divided into two parts. One part was placed at room temperature of 25° C. in the dark, and the other part was placed under light with a light intensity of 30,000 lux. At 1 h, 2 h, and 3 h, a solution sample was collected and scanned for absorbance respectively.
An absorbance value of a maximum absorption peak at 0 h (starting) of each test solution was set as a relative content of 100%, and a ratio of an absorbance value at each time point to the absorbance value at 0 h was calculated to determine a relative content, %.

[2] = Water solubility of the prepared salts; assay type: physicochemical

Molecule | Relative content ([1]; 1 h) | Relative content ([1]; 2 h) | Relative content ([1]; 3 h) | solubility in water [2]
magnesium iron hydroxychlorophyllin [Example 74] | 80.48% | 67.53% | 67.13% | –
ferrous iron chlorin [Example 25] | – | – | – | slightly soluble
manganese hydroxyhematin [Example 66] | 87.45% | 83.77% | 80.00% | slightly soluble
sodium iron hydroxychlorophyllin [Example 72] | 60.39% | 52.14% | 47.32% | easily soluble
C=CC1=C(C)c2cc3[n-]c(cc4nc(cc5[n-]c(cc1n2)c(C)c5C=C)C(C)=C4CCC(=O)[O-])c(CCC(=O)[O-])c3C.[Cl-].[Fe+3].[Mn+2] [Example 15, manganese chlorhematin] | – | 82.32% | 81.07% | slightly soluble
C=CC1=C(C)c2cc3[nH]c(cc4nc(cc5[nH]c(cc1n2)c(C)c5C=C)C(C)=C4CCC(=O)O)c(CCC(=O)O)c3C.N.N [Example 2, ammonium protoporphyrin] | 60.29% | 48.76% | 45.99% | easily soluble
ferric protoporphyrin [Example 7] | – | – | – | slightly soluble
copper hydroxyhematin [Example 70] | 96.20% | 95.71% | 92.81% | slightly soluble
ferric chlorin [Example 58] | – | – | – | slightly soluble
C=CC1=C(C)c2cc3[n-]c(cc4nc(cc5[n-]c(cc1n2)c(C)c5CCC(=O)[O-])C(CCC(=O)[O-])=C4C)c(C)c3C=C.[Cl-].[Fe+2].[Fe+3] [Example 16, ferrous chlorhematin] | – | – | – | slightly soluble
ferric hydroxyhematin [Example 68] | – | – | – | slightly soluble
zinc hydroxyhematin [Example 69] | 94.32% | 93.24% | 90.85% | slightly soluble
ferric copper chlorophyllin [Example 49] | – | – | – | slightly soluble
ferric zinc chlorophyllin [Example 39] | – | – | – | slightly soluble
zinc iron hydroxychlorophyllin [Example 79] | 73.29% | 69.57% | 65.55% | slightly soluble
ferrous zinc chlorophyllin [Example 38] | – | – | – | slightly soluble
potassium hydroxyhematin [Example 62] | 77.06% | 75.72% | 73.04% | easily soluble
ferric chlorhematin [Example 17] | – | – | – | slightly soluble
magnesium hydroxyhematin [Example 64] | 96.74% | 93.78% | 93.33% | –
magnesium protoporphyrin [Example 3] | 93.32% | 90.98% | 89.65% | soluble
C=CC1=C(C)c2cc3[nH]c(cc4nc(cc5[nH]c(cc1n2)c(C)c5C=C)C(C)=C4CCC(=O)[O-])c(CCC(=O)[O-])c3C.[Mn+2] [Example 5, manganese protoporphyrin] | 92.57% | 90.09% | 88.85% | soluble

Molecule | Relative content ([1]; 1 h) | Relative content ([1]; 2 h) | Relative content ([1]; 3 h) | solubility in water [2]
ferrous hydroxyhematin [Example 67] | – | – | – | slightly soluble
ferrous iron hydroxychlorophyllin [Example 76] | – | – | – | slightly soluble
C=CC1=C(C)c2cc3[n-]c(cc4nc(cc5[n-]c(cc1n2)c(C)c5C=C)C(C)=C4CCC(=O)[O-])c(CCC(=O)[O-])c3C.[Fe+3].[Na+].[Na+].[OH-] [Sodium hydroxyhematin, sodium hydroxyhematin, reference compound] | 70.21% | 62.33% | 57.03% | easily soluble
C=CC1=C(C)c2cc3[n-]c(cc4nc(cc5[n-]c(cc1n2)c(C)c5C=C)C(C)=C4CCC(=O)[O-])c(CCC(=O)[O-])c3C.[Ca+2].[Cl-].[Fe+3] [Example 14, calcium chlorhematin] | 82.53% | 81.78% | 81.97% | soluble
ferric iron chlorin [Example 26] | – | – | – | slightly soluble
C=CC1=C(C)c2cc3[n-]c(cc4nc(cc5[n-]c(cc1n2)c(C)c5C=C)C(C)=C4CCC(=O)O)c(CCC(=O)O)c3C.[Zn+2] [Example 8, zinc protoporphyrin] | 90.95% | 89.52% | 86.51% | slightly soluble
C=CC1=C(C)c2cc3[nH]c(cc4nc(cc5[nH]c(cc1n2)c(C)c5C=C)C(C)=C4CCC(=O)[O-])c(CCC(=O)[O-])c3C.[Ca+2] [Example 4, calcium protoporphyrin] | 90.07% | 87.11% | 85.89% | soluble
C=CC1=C(C)c2cc3[n-]c(cc4[n-]c(cc5nc(cc1n2)C(C)=C5C=C)c(C)c4CCC(=O)O)c(CCC(=O)O)c3C.[Fe+2] [Example 6, ferrous protoporphyrin] | – | – | – | soluble
copper iron hydroxychlorophyllin [Example 80] | 79.89% | 76.11% | 73.21% | slightly soluble
ferrous copper chlorophyllin [Example 48] | – | – | – | slightly soluble
C=CC1=C(C)c2cc3[nH]c(cc4nc(cc5[nH]c(cc1n2)c(C)c5C=C)C(C)=C4CCC(=O)[O-])c(CCC(=O)[O-])c3C.[Cu+2] [Example 9, copper protoporphyrin] | 96.42% | 95.56% | 94.88% | slightly soluble
potassium iron hydroxychlorophyllin [Example 71] | 62.96% | 54.32% | 49.38% | easily soluble
C=CC1=C(C)c2cc3[n-]c(cc4nc(cc5[n-]c(cc1n2)c(C)c5CCC(=O)[O-])C(CCC(=O)[O-])=C4C)c(C)c3C=C.[Cl-].[Fe+3].[Zn+2] [Example 18, zinc chlorhematin] | 93.45% | 93.10% | 92.74% | slightly soluble
C=CC1=C(C)c2cc3[n-]c(cc4nc(cc5[n-]c(cc1n2)c(C)c5C=C)C(C)=C4CCC(=O)[O-])c(CCC(=O)[O-])c3C.[Cl-].[Fe+3].[NH4+].[NH4+] [Example 12, ammonium chlorhematin] | 73.07% | 67.80% | 66.25% | easily soluble
ferrous iron chlorophyllin [Example 32] | – | – | – | slightly soluble
ferrous chlorin [Example 57] | – | – | – | slightly soluble
manganese iron hydroxychlorophyllin [Example 78] | 75.51% | 70.44% | 68.12% | slightly soluble
ferric iron hydroxychlorophyllin [Example 77] | – | – | – | slightly soluble
ferric iron chlorophyllin [Example 33] | – | – | – | slightly soluble
C=CC1=C(C)c2cc3[n-]c(cc4nc(cc5[n-]c(cc1n2)c(C)c5CCC(=O)[O-])C(CCC(=O)[O-])=C4C)c(C)c3C=C.[Cl-].[Cu+2].[Fe+3] [Example 19, copper chlorhematin] | 95.23% | 95.03% | 93.04% | slightly soluble
